From article PMC11965660, “Isobavachalcone ameliorates Alzheimer disease pathology by autophagy-mediated clearance of amyloid beta and inhibition of NLRP3 inflammasome in primary astrocytes and 5x-FAD mice” (Frontiers in Pharmacology, 2025)
Entries after “also recorded” stand apart in the source; their conditions may differ. Read-outs that look alike come from different tables or passages of the source.

Experiments:
[1] = test system: autophagy pathway proteins; test: Immunoblotting of autophagy pathway proteins in primary astrocytes; format: cell-based, C57BL/6J mice
Protocol: Primary astrocytes were cultured from C57BL/6J (Jax:000664) mice pups with the approval of Institutional Animal Ethics Committee (IAEC) of CSIR-Indian Institute of Integrative Medicine (IIIM), Jammu, under IAEC number 287/80/2/2022 and 305/81/8/2022. The astrocytes were isolated from the brain of 3–4 days-old mice pups and were grown in 10% FBS-supplemented DMEM media. Briefly, pups were sacrificed through decapitation and sterilized with 70% ethanol. Brain was exposed and isolated. Olfactory lobes and cerebellum were removed with fine blade. The cortical region separated was collected in incomplete media (media without fetal bovine serum) and cut into small pieces. After that, these cortices were incubated at 37°C in 0.25% trypsin for 30 min, with gentle shaking after every 10 min. Trypsin activity was neutralized with complete media and cells were collected using a 70-micron cell strainer followed by centrifugation at 300 g for 5 min. The pellet was dissolved in fresh media and cells were grown in cell culture flasks and were maintained at 37°C in a CO2 incubator. Microglia and oligodendrocytes were separated from the underlying astrocyte layer after 6-7 days by shaking the flask for 6 h at 240 rpm. Cultures astrocytes within 2-4 passage were used for all the experiments.
(§1) Cellular lysates were prepared using radio immuno precipitation assay (RIPA) buffer for protein analysis. Briefly, the cell pellet was dissolved in RIPA buffer containing sodium fluoride, sodium orthovanadate, phenyl methyl sulfonyl fluoride (PMSF) and 1% protease inhibitor cocktail for 1 h with vertexing sample every 15 min. The supernatant was collected after high-speed centrifugation of samples for 20 min at 4°C. For analysis of proteins in mice hippocampi, the hippocampi isolated from mice brains was immediately washed with saline and stored in liquid nitrogen. For lysates preparation, tissue was homogenized in RIPA buffer substituted with sodium fluoride, sodium orthovanadate, phenyl methyl sulfonyl fluoride and 1% protease inhibitor cocktail. Total protein was measured using Bradford assay. Proteins were separated using SDS-PAGE and then transferred from gel to PVDF membrane. The protein of interest was labeled with a specific primary antibody overnight at 4°C. Further, the blot was incubated with corresponding HRP-conjugated secondary antibody for 1 h at room temperature. The band were visualized in the Genaxy Chemi Doc imaging system (Make: Syngene, Maryland, USA; Model: G: BOX, XT-4). Densitometry analysis of all the immunoblots was performed by using ImageJ software. Band density of proteins was normalized with β-actin. The phosphorylated proteins were normalized with their total forms.

[2] = Pharmacokinetic analysis in plasma and brain; format: in vivo; conditions: C57BL/6J mice
Protocol: C57BL/6J (Jax:000664) male mice were used for pharmacokinetic analysis of IBC. Mice were randomly sorted into 9 groups (n = 5). 30 mg/kg oral dose of IBC (1% DMSO +70% PEG-200 + 29% water) was given to mice. Blood or brain samples were collected at 0, 0.25, 0.5, 1, 2, 4, 6, 8 and 24 h. The plasma (100 µL) sample was processed with ethyl acetate (200 µL) containing IS (150 ng/mL) and centrifuged at 300 g for 10 min. The organic layer was separated and dried in a vacuum, reconstituted with acetonitrile, and analyzed by LC-MS/MS [SRM transition of IBC and IS (Phenacetin) is 325.2 & gt; 149.0 and 180.2 & gt; 110.2 in Positive mode]. Brain homogenate was prepared using the weighted amount of brain tissue in water at the concentration level of 350 mg/mL and processed similarly to plasma samples.

5x-FAD mice hippocampus = test: Immunoblotting of autophagy, NLRP3 inflammasome and neuroinflammation proteins in hippocampus; format: in vivo; conditions: 25 and 50 mg/kg
Protocol: as §1
Hemizygous 5x-FAD transgenic mice (B6.Cg-Tg(APPSwFlLon, PSEN1*M146L*L286V) 6799Vas/Mmjax; MMRRC Strain: 034848-JAX) on congenic C57BL/6J genetic background were used for experiments. The 5x-FAD mice were genotyped using APP-specific qPCR probes to detect the transgene as per the protocol of Jackson Laboratory. Six months old 5x-FAD mice were randomly divided into three groups (n = 5), based on their body weights, with three males and two females in each group. We used mixed-cohort of males and females for our study to exclude any gender biased effect of IBC. Also, AD symptoms are more pronounced in females than in males ([Aggarwal and Mielke, 2023]), making it possible that males and females respond differently to the drug and treatment. Considering this, it is important to show effect of IBC on both sexes. At this age, Aβ deposition and neuroinflammation has already progressed in these mice. We have used IBC as a curative drug rather than a preventive drug. Prior to the initiation of the study, all the animals were acclimatized for 1 week under standard laboratory conditions; animals were drug naive with no prior procedures performed. All testing were performed from 1 to 4 p.m. IBC was orally (OD) given to two groups at different doses, 25 mg/kg (1% DMSO, 2% Tween 80, 19% PEG200, and 78% distilled water) and 50 mg/kg (1% DMSO, 5% Tween 80, 19% PEG200% and 75% distilled water) using oral gavage. 5x-FAD control mice were administered with vehicle (1% DMSO, 5% Tween 80, 19% PEG200% and 75% distilled water). For behavioral and Immunohistochemistry assays, experimenters were blinded to animal identity while carrying out the procedures.

[3] = male, mouse, blood plasma, 30 mg/kg oral
[4] = male, mouse, brain, 30 mg/kg oral

In the case of CC(C)=CCc1c(O)ccc(C(=O)/C=C/c2ccc(O)cc2)c1O [IBC, isobavachalcone], the ATG5 level ([1]; 24 h) is reported as “upregulated”, the ATG7 level ([1]; 24 h) is reported as “upregulated” and the BECN1 expression ([1]; 24 h) is reported as “did not show any change”. For the same compound, the FIP200 phosphorylation ([1]; 24 h) was “increased phosphorylation”, the MTOR level ([1]; 24 h) was “no change” and the ULK1 phosphorylation ([1]; 24 h) was “phosphorylated at Ser 317”. For the same compound, the “pLKB1 (Ser 428) level” value ([1]; 24 h) was “no change”, the “AMPK phosphorylation (Thr 172)” value ([1]; 24 h, 5, 10 and 20 μM) was “concentration-dependent increase” and the BCL2 level ([1]; 24 h, 5, 10 and 20 μM) was “marked decline”. The LC3B-II level ([1]; 24 h, 5, 10 and 20 μM) was “significant increase”, the “pCAMKK2 (Ser 511) level” value ([1]; 24 h, 5, 10 and 20 μM) was “significantly upregulated” and the SQSTM1 level ([1]; 24 h, 10 and 20 μM) was “reducing levels”. For the same compound, the Cl ([2]; blood plasma, 30 mg/kg oral) was 833 ± 120 mL/min/kg, the Vd ([2]; blood plasma, 30 mg/kg oral) was 355 ± 81 L/kg and the AUC0-t ([2]; brain, 30 mg/kg oral) was 72 ± 7 ng·h/g. For the same compound, the “AUC0-∞” value ([2]; brain, 30 mg/kg oral) was 79 ± 7 ng·h/g, the Kp ([2]; male, mouse, brain and plasma, 30 mg/kg oral, read-out: brain-to-plasma ratio) was 0.12 to 0.16 and the AUC(0-inf) [2, 3] was 637 ± 74 ng·h/mL. For the same compound, the Cmax [2, 3] was 208 ± 46 ng/mL, the Tmax [2, 3] was 0.6 ± 0.1 h and the half-life [2, 3] was 5.6 ± 1.5 h. It also gave an AUC0-t ([2]; male, mouse, blood plasma, 30 mg/kg oral, read-out: AUC0-t) of 548 ± 59 ng·h/mL, a Cmax [2, 4] of 34 ± 4 ng/g and a Tmax [2, 4] of 0.6 ± 0.1 h. For the same compound, the half-life [2, 4] was 1.8 ± 0.4 h, the blood-brain barrier penetration ([2]; single dose 30 mg/kg p.o., 30 mg/kg) was “low penetration; also recorded: low brain availability” and the “GFAP expression (western blot)” value (5x-FAD mice hippocampus) was “decreased expression”. The ASC level (5x-FAD mice hippocampus; western blot) was “significant abrogation”, the ATG7 expression (5x-FAD mice hippocampus; western blot) was “increased expression” and the CASP1 level (5x-FAD mice hippocampus; western blot) was “significant abrogation”. For the same compound, the IBA1 expression (5x-FAD mice hippocampus; western blot) was “decreased expression”, the SQSTM1 expression (5x-FAD mice hippocampus; western blot) was “significantly decreased” and the “cleavage of IL-1β” value (5x-FAD mice hippocampus; western blot) was “reduced cleavage”. The pAMPK expression (5x-FAD mice hippocampus; western blot) was “increased expression”.
